Results: ChEMBL document CHEMBL1144372, “Novel 2-amino-4-oxo-5-arylthio-substituted-pyrrolo[2,3-d]pyrimidines as nonclassical antifolate inhibitors of thymidylate synthase” (Bioorg Med Chem Lett, 2005)

What was measured:
[1] = test system: MDA-MB-231; assay: Growth inhibitory concentration against human MDA-MB-231 cells; assay type: functional
[2] = molecular target: Thymidylate synthase (Escherichia coli, UniProt C3SWJ7); assay: Inhibitory concentration against Escherichia coli thymidylate synthase
Thymidylate synthase (Escherichia coli, UniProt C3SWJ7), sequence (C3SWJ7 whole entry): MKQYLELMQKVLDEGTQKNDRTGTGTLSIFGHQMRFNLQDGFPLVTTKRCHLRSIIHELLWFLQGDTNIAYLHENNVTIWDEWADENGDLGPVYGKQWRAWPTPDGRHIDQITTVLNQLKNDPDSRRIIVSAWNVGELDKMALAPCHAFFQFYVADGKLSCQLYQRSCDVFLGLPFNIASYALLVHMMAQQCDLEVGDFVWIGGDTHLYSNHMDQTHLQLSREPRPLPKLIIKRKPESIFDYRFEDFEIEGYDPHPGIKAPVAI

[3] = test system: HT-29; assay: Growth inhibitory concentration against human HT-29 cells; assay type: functional
[4] = test system: MOLT-4; assay: Growth inhibitory concentration against human MOLT-4 cells; assay type: functional
[5] = Inhibitory concentration against Escherichia coli dihydrofolate reductase
[6] = molecular target: Thymidylate synthase (Homo sapiens, UniProt P04818)
Thymidylate synthase (Homo sapiens, UniProt P04818), sequence (P04818 whole entry): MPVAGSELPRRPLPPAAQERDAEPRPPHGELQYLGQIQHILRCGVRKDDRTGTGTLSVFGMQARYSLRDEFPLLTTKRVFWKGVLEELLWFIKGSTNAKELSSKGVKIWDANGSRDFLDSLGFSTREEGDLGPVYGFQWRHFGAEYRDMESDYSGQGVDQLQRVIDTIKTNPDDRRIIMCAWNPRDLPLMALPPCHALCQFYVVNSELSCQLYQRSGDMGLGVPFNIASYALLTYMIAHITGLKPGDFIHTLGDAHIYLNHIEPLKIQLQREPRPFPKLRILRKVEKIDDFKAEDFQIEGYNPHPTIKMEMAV
Description: Inhibitory concentration against human thymidylate synthase

[7] = molecular target: T1, Dihydrofolate reductase (Homo sapiens, UniProt P00374); assay: Inhibitory concentration against human dihydrofolate reductase
T1 sequence (P00374 whole entry): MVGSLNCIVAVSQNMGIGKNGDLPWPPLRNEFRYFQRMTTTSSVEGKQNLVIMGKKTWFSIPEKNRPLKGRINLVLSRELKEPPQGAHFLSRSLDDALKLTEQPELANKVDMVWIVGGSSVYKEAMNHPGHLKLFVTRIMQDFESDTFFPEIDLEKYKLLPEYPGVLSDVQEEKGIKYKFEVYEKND

| Compound | GI50 [1] [µM] | GI50 ([1]; Homo sapiens, MDA-MB-231) [µM] | IC50 [2] [µM] | GI50 [3] [µM] | GI50 [4] [µM] | IC50 [5] [µM] | IC50 [6] [µM] | IC50 [7] [µM] |
| --- | --- | --- | --- | --- | --- | --- | --- | --- |
| Cc1[nH]c2nc(N)nc(O)c2c1Sc1ccc(Br)c([N+](=O)[O-])c1 | 3.28 | 6.55 | 11 | 6.18 | 4.23 | > 25 | 0.21 | – |
| Cc1[nH]c2nc(N)nc(O)c2c1Sc1ccc(OC(F)(F)F)cc1 | – | – | > 23 | – | – | > 28 | 2.3 | – |
| Cc1[nH]c2nc(N)nc(O)c2c1Sc1ccc(Br)cc1 | – | – | – | – | – | 2.8 | 0.46 | > 28 |
| Cc1[nH]c2nc(N)nc(O)c2c1Sc1ccc(C#N)cc1 | – | – | – | – | – | > 34 | 0.28 | > 34 |
| Cc1[nH]c2nc(N)nc(O)c2c1Sc1cc(C(F)(F)F)cc(C(F)(F)F)c1 | – | – | – | – | – | > 25 | > 21 | > 25 |
| Cc1[nH]c2nc(N)nc(O)c2c1Sc1cc(Cl)cc(Cl)c1 | – | – | > 24 | – | – | > 29 | 2.4 | – |
| Cc1[nH]c2nc(N)nc(O)c2c1Sc1cc(F)cc(F)c1 | – | – | – | – | – | > 32 | 2.7 | > 32 |
| Cc1[nH]c2nc(N)nc(O)c2c1Sc1ccc(C(F)(F)F)cc1 | – | – | – | – | – | > 29 | 0.8 | > 29 |
| Cc1[nH]c2nc(N)nc(O)c2c1Sc1cccc(Br)c1 | – | – | > 24 | – | – | > 28 | 1.2 | – |
| Cc1[nH]c2nc(N)nc(O)c2c1Sc1ccc(F)c(Cl)c1 | – | – | – | – | – | > 31 | 0.83 | > 31 |
| Cc1[nH]c2nc(N)nc(O)c2c1Sc1ccc(F)cc1 | – | – | – | – | – | > 33 | 1.4 | > 32 |
| Cc1[nH]c2nc(N)nc(O)c2c1Sc1cccc(Cl)c1 | – | – | – | – | – | > 33 | 1.4 | > 32 |
| Cc1[nH]c2nc(N)nc(O)c2c1Sc1cc([N+](=O)[O-])cc([N+](=O)[O-])c1 | – | – | > 23 | – | – | > 27 | 23 | – |
| Cc1[nH]c2nc(N)nc(O)c2c1Sc1ccc(Cl)c([N+](=O)[O-])c1 | – | – | 23 | – | – | > 28 | 0.46 | – |
| Cc1[nH]c2nc(N)nc(O)c2c1Sc1ccc(F)c(F)c1 | – | – | – | – | – | > 32 | 0.9 | > 32 |
| Cc1[nH]c2nc(N)nc(O)c2c1Sc1ccc(Br)c(Cl)c1 | – | – | – | – | – | > 26 | 0.22 | > 26 |
| Cc1[nH]c2nc(N)nc(O)c2c1Sc1cccc(F)c1 | – | – | > 28 | – | – | > 33 | 2.8 | – |
